Assays:
[1] = test system: Glomerella Lacenarium (Colletotrichum lacenarium); test: Glomerella lagenarium (Colletotrichum lagenarium) liquid culture / cucumber / preventative (anthracnose); type: cell-based; conditions: 20 ppm in the applied formulation, liquid culture in PDB, 24° C., inhibition of growth measured photometrically 3 to 4 days after application, vs untreated control, read-out: disease control
Experimental: Mycelia fragments or conidia suspensions of a fungus prepared either freshly from liquid cultures of the fungus or from cryogenic storage, are directly mixed into nutrient broth. DMSO solutions of the test compound (max. 10 mg/ml) are diluted with 0.025% Tween20 by a factor of 50 and 10 μl of this solution is pipetted into a microtiter plate (96-well format). The nutrient broth containing the fungal spores/mycelia fragments is then added to give an end concentration of the tested compound. The test plates are incubated in the dark at 24° C. and 96% relative humidity. The inhibition of fungal growth is determined photometrically after 2 to 7 days, depending on the pathosystem, and percent antifungal activity relative to the untreated check is calculated.
Conidia of the fungus from cryogenic storage are directly mixed into nutrient broth (PDB—potato dextrose broth). After placing a (DMSO) solution of test compound into a microtiter plate (96-well format), the nutrient broth containing the fungal spores is added. The test plates are incubated at 24° C. and the inhibition of growth is measured photometrically 3 to 4 days after application.
The following compounds at 20 ppm in the applied formulation give at least 80% disease control in this test when compared to untreated control under the same conditions, which show extensive disease development.

Phakopsora pachyrhizi = Phakopsora pachyrhizi / soybean / leaf disc preventative (Asian soybean rust); type: in vivo, Phakopsora pachyrhizi on soybean; conditions: foliar, 200 ppm in the applied formulation, inoculated one day after application, assessed 12 to 14 days after application, vs untreated control leaf disks, read-out: disease control
Experimental: (§1) Leaf disks or leaf segments of various plant species are cut from plants grown in a greenhouse. The cut leaf disks or segments are placed in multiwell plates (24-well format) onto water agar. The leaf disks are sprayed with a test solution before (preventative) or after (curative) inoculation. Compounds to be tested are prepared as DMSO solutions (max. 10 mg/ml) which are diluted to the appropriate concentration with 0.025% Tween20 just before spraying. The inoculated leaf disks or segments are incubated under defined conditions (temperature, relative humidity, light, etc.) according to the respective test system. A single evaluation of disease level is carried out 3 to 14 days after inoculation, depending on the pathosystem. Percent disease control relative to the untreated check leaf disks or segments is then calculated.
Soybean leaf disks are placed on water agar in multiwell plates (24-well format) and sprayed with the formulated test compound diluted in water. One day after application leaf discs are inoculated by spraying a spore suspension on the lower leaf surface. After an incubation period in a climate cabinet of 24-36 hours in darkness at 20° C. and 75% rh leaf disc are kept at 20° C. with 12 h light/day and 75% rh. The activity of a compound is assessed as percent disease control compared to untreated when an appropriate level of disease damage appears in untreated check leaf disks (12 to 14 days after application).
(§2) The following compounds at 200 ppm in the applied formulation give at least 80% disease control in this test when compared to untreated control leaf disks under the same conditions, which show extensive disease development.

[2] = test system: Puccinia recondita f. Sp. Tritici; test: Puccinia recondita f. sp. tritici / wheat / leaf disc preventative (brown rust); type: in vivo, Puccinia recondita f. sp. tritici on wheat cv. Kanzler; conditions: foliar, 200 ppm in the applied formulation, inoculated 1 day after application, assessed 7 to 9 days after application, vs untreated control leaf disks, read-out: disease control
Experimental: as §1, with “calculated. Wheat leaf segments cv. Kanzler were placed on agar in multiwell plates (24-well format) and sprayed with the formulated test compound diluted in water. The leaf disks were inoculated with a spore suspension of the fungus 1 day after application. The inoculated leaf segments were incubated at 19′C and 75% relative humidity (rh) under a light regime of 12 hours light/12 hours darkness in a climate cabinet and the activity of a compound was assessed as percent disease control compared to untreated when an appropriate level of disease damage appears in untreated check leaf segments (7 to 9 days after application). The following compounds at 200 ppm in the applied formulation give at least 80% disease control in this test when compared to untreated control leaf disks under the same conditions, which show extensive disease development.” for “calculated.”

[3] = test system: Puccinia recondita f. Sp. Triticil; test: Puccinia recondita f. sp. tritici / wheat / leaf disc curative (brown rust); type: in vivo, Puccinia recondita f. sp. tritici on wheat cv. Kanzler; conditions: foliar, 200 ppm in the applied formulation, applied 1 day after inoculation, assessed 6 to 8 days after application, vs untreated control leaf disks, read-out: disease control
Experimental: as §1
Wheat leaf segments cv. Kanzler are placed on agar in multiwell plates (24-well format). The leaf segments are then inoculated with a spore suspension of the fungus. Plates were stored in darkness at 19° C. and 75% relative humidity. The formulated test compound diluted in water was applied 1 day after inoculation. The leaf segments were incubated at 19° C. and 75% relative humidity under a light regime of 12 hours light/12 hours darkness in a climate cabinet and the activity of a compound was assessed as percent disease control compared to untreated when an appropriate level of disease damage appears in untreated check leaf segments (6 to 8 days after application).
as §2

CC1CC1C(=O)NCCc1ccc(-c2noc(C(F)(F)F)n2)cc1 (centres unmarked) [Compound 1.102, 2-methyl-N-[2-[4-[5-(trifluoromethyl)-1,2,4-oxadiazol-3-yl]phenyl]ethyl] cyclopropanecarboxamide]
≥ 80%: inhibition of growth at 20 ppm [1] | pest or weed control at 200 ppm (Phakopsora pachyrhizi) | pest or weed control at 200 ppm [2] | pest or weed control at 200 ppm [3]

CC1(C)CC1C(=O)NCc1ccc(-c2noc(C(F)(F)F)n2)cc1 (centres unmarked) [Compound 1.28, 2,2-dimethyl-N-[[4-[5-(trifluoromethyl)-1,2,4-oxadiazol-3-yl]phenyl]methyl] cyclopropanecarboxamide]
≥ 80%: inhibition of growth at 20 ppm [1] | pest or weed control at 200 ppm (Phakopsora pachyrhizi) | pest or weed control at 200 ppm [2] | pest or weed control at 200 ppm [3]

CC1(C(=O)NCCc2ccc(-c3noc(C(F)(F)F)n3)cc2)CC1 [Compound 1.103, 1-methyl-N-[2-[4-[5-(trifluoromethyl)-1,2,4-oxadiazol-3-yl]phenyl]ethyl] cyclopropanecarboxamide]
≥ 80%: inhibition of growth at 20 ppm [1] | pest or weed control at 200 ppm (Phakopsora pachyrhizi) | pest or weed control at 200 ppm [2]

O=C(NCCc1ccc(-c2noc(C(F)(F)F)n2)cc1)C1CCC1 [Compound 1.101, N-[2-[4-[5-(trifluoromethyl)-1,2,4-oxadiazol-3-yl]phenyl]ethyl] cyclobutanecarboxamide]
≥ 80%: inhibition of growth at 20 ppm [1] | pest or weed control at 200 ppm (Phakopsora pachyrhizi) | pest or weed control at 200 ppm [2] | pest or weed control at 200 ppm [3]

O=C(CC1CC1)NCc1ccc(-c2noc(C(F)(F)F)n2)cc1 [Compound 1.53, 2-cyclopropyl-N-[[4-[5-(trifluoromethyl)-1,2,4-oxadiazol-3-yl]phenyl]methyl]acetamide]
≥ 80%: inhibition of growth at 20 ppm [1] | pest or weed control at 200 ppm (Phakopsora pachyrhizi) | pest or weed control at 200 ppm [2] | pest or weed control at 200 ppm [3]

O=C(CC1CCCC1)NCc1ccc(-c2noc(C(F)(F)F)n2)cc1 [Compound 1.7, 2-cyclopentyl-N-[[4-[5-(trifluoromethyl)-1,2,4-oxadiazol-3-yl]phenyl]methyl]acetamide]
≥ 80%: inhibition of growth at 20 ppm [1] | pest or weed control at 200 ppm (Phakopsora pachyrhizi) | pest or weed control at 200 ppm [2] | pest or weed control at 200 ppm [3]

CC1CC1C(=O)NCc1ccc(-c2noc(C(F)(F)F)n2)c(F)c1 (centres unmarked) [Compound 1.64, N-[[3-fluoro-4-[5-(trifluoromethyl)-1,2,4-oxadiazol-3-yl]phenyl]methyl]-2-methyl-cyclopropanecarboxamide]
≥ 80%: inhibition of growth at 20 ppm [1] | pest or weed control at 200 ppm (Phakopsora pachyrhizi) | pest or weed control at 200 ppm [2] | pest or weed control at 200 ppm [3]

CC1(C(=O)NCc2ccc(-c3noc(C(F)(F)F)n3)c(F)c2)COC1 [Compound 1.69, N-[[3-fluoro-4-[5-(trifluoromethyl)-1,2,4-oxadiazol-3-yl]phenyl]methyl]-3-methyl-oxetane-3-carboxamide]
≥ 80%: inhibition of growth at 20 ppm [1] | pest or weed control at 200 ppm (Phakopsora pachyrhizi) | pest or weed control at 200 ppm [2] | pest or weed control at 200 ppm [3]

O=C(NCc1ccc(-c2noc(C(F)(F)F)n2)c(F)c1)C1CCC1 [Compound 1.93, N-[[3-fluoro-4-[5-(trifluoromethyl)-1,2,4-oxadiazol-3-yl]phenyl]methyl] cyclobutanecarboxamide]
≥ 80%: inhibition of growth at 20 ppm [1] | pest or weed control at 200 ppm (Phakopsora pachyrhizi) | pest or weed control at 200 ppm [2] | pest or weed control at 200 ppm [3]

O=C(NCc1ccc(-c2noc(C(F)(F)F)n2)cc1F)C1CC1 [Compound 1.47, N-[[2-fluoro-4-[5-(trifluoromethyl)-1,2,4-oxadiazol-3-yl]phenyl]methyl] cyclopropanecarboxamide]
≥ 80%: inhibition of growth at 20 ppm [1] | pest or weed control at 200 ppm [2] | pest or weed control at 200 ppm [3]

CC1(C(=O)NCc2ccc(-c3noc(C(F)(F)F)n3)cc2F)COC1 [Compound 1.71, N-[[2-fluoro-4-[5-(trifluoromethyl)-1,2,4-oxadiazol-3-yl]phenyl]methyl]-3-methyl-oxetane-3-carboxamide]
≥ 80%: inhibition of growth at 20 ppm [1] | pest or weed control at 200 ppm [2] | pest or weed control at 200 ppm [3]

O=C(NCc1ccc(-c2noc(C(F)(F)F)n2)cc1)C1CCCCC1 [Compound 1.10, N-[[4-[5-(trifluoromethyl)-1,2,4-oxadiazol-3-yl]phenyl]methyl] cyclohexanecarboxamide]
≥ 80%: inhibition of growth at 20 ppm [1] | pest or weed control at 200 ppm (Phakopsora pachyrhizi) | pest or weed control at 200 ppm [2]

CC1(C(=O)NCc2ccc(-c3noc(C(F)(F)F)n3)c(F)c2F)COC1 [Compound 1.85, N-[[2,3-difluoro-4-[5-(trifluoromethyl)-1,2,4-oxadiazol-3-yl]phenyl]methyl]-3-methyl-oxetane-3-carboxamide]
≥ 80%: inhibition of growth at 20 ppm [1] | pest or weed control at 200 ppm [2] | pest or weed control at 200 ppm [3]

O=C(NCc1ccc(-c2noc(C(F)(F)F)n2)cn1)c1ccccc1Cl [Compound 1.44, 2-chloro-N-[[5-[5-(trifluoromethyl)-1,2,4-oxadiazol-3-yl]-2-pyridyl]methyl]benzamide]
≥ 80%: inhibition of growth at 20 ppm [1] | pest or weed control at 200 ppm [2] | pest or weed control at 200 ppm [3]

O=C(NCc1ccc(-c2noc(C(F)(F)F)n2)c(F)c1F)C1CCOC1 (centres unmarked) [Compound 1.83, N-[[2,3-difluoro-4-[5-(trifluoromethyl)-1,2,4-oxadiazol-3-yl]phenyl]methyl] tetrahydrofuran-3-carboxamide]
≥ 80%: inhibition of growth at 20 ppm [1] | pest or weed control at 200 ppm [2] | pest or weed control at 200 ppm [3]

CC1(C(=O)NCc2ccc(-c3noc(C(F)(F)F)n3)cn2)CC1 [Compound 1.90, 1-methyl-N-[[5-[5-(trifluoromethyl)-1,2,4-oxadiazol-3-yl]-2-pyridyl]methyl] cyclopropanecarboxamide]
≥ 80%: inhibition of growth at 20 ppm [1] | pest or weed control at 200 ppm [2] | pest or weed control at 200 ppm [3]

CC1CC1C(=O)NCc1ccc(-c2noc(C(F)(F)F)n2)c(F)c1F (centres unmarked) [Compound 1.77, N-[[2,3-difluoro-4-[5-(trifluoromethyl)-1,2,4-oxadiazol-3-yl]phenyl]methyl]-2-methyl-cyclopropanecarboxamide]
≥ 80%: inhibition of growth at 20 ppm [1] | pest or weed control at 200 ppm (Phakopsora pachyrhizi) | pest or weed control at 200 ppm [2]

From patent US20180368410A1, “MICROBIOCIDAL OXADIAZOLE DERIVATIVES” (SYNGENTA PARTICIPATIONS AG, priority 2015, published 2018)
